In patent US20260009008A1, “SYNTHETIC GENOME EDITING SYSTEM” (Pencil Biosciences Limited, priority 2021, published 2026):
Entries after “also recorded” stand apart in the source; their conditions may differ. Each block holds one substance with its values, some of them ahead of it.

Legend:
PDS2 dsDNA bait (ACGGGT) = assay: ELISA / bio-panning of M13 phage display peptides on biotinylated dsDNA bait PDS2; format: binding; conditions: peptide displayed in the phage library
Text: (§1) As noted above, a commercially available M13 phage display library was employed (New England Biolabs, catalogue #E8111L) which contains around 1×10^912mer peptides fused to the N-terminus of the phage minor coat protein III. Two different 6 nt dsDNA baits were employed with a biotin tag immobilized on a streptavidin-coated 96 well plate as specified in Table 1 below:
(§2) ELISA assays were used to assess binding of peptides of the phage display library to the PDS1 and PDS2 dsDNA baits using an anti-M13 phage antibody labelled with horseradish peroxidase (HRP). After three rounds of bio-panning and sequence analysis of the bound peptides in the library, two 12 mer peptide sequences were selected, chemically synthesised, and modified as set out in Table 2 below.
(§3) • 1. Blocking step of the streptavidin coated 96 well plate (Fisher Scientific, UK) with the Blocking Buffer (0.1 M NaHCO3 (pH 8.6), 5 mg/ml BSA, filter sterilised and stored at 4° C.). • 2. 6 rounds of wash with 1× TBST after discarding the blocking solution. • 3. Precomplexing step (this step can be done at the same time as the blocking step, mentioned above), where the amplified phage library was incubated with each of the dsDNA baits in separate reactions. Each bait includes annealed double stranded DNA oligos (dsDNA), containing one of the PDS sites. […]

[1] = Observation of peptide aggregation / precipitation; format: physicochemical
plasmid DNA (pBR322) = assay: Gel plasmid cleavage assay; format: biochemical; conditions: for percentage of nicked plasmid with increasing peptide concentration: after 12 hours
Text: For this reason a further gel plasmid cleavage assay was employed to look for cleavage. Such a gel cleavage assay can differentiate between plasmid that is intact (no cleavage), nicked (ssDNA cleavage) and linearised (dsDNA cleavage) as the three plasmid species will migrate differently on an agarose gel. Intact plasmids have a supercoiled structure and therefore can migrate easily through an agarose gel whereas a ssDNA cleavage on the plasmid will relax this supercoiled structure. This produces a relaxed circle/nicked structure that migrates more slowly through the pores. The dsDNA cleavage of a plasmid produces a linearised plasmid. The linear structure migrates faster than a relaxed circular structure although not as fast as the supercoiled structure.
To optimize the assay, plasmid DNA (pBR322) was mixed with increasing concentrations of the peptide bL or bN, in the presence of Zn^2 + ions. […] The percentage of nicked species increases with greater peptide concentration for both bL and bN. […] An increasing proportion of the plasmid DNA is also observed in the wells of the gel. This DNA can be binding to the peptide causing a complex that is unable to migrate into the gel.

[2] = tested on: molecular beacon DNA oligonucleotide (SEQ. ID. No. 60); assay: Molecular beacon assay for DNA binding and cleavage; format: biochemical; conditions: for emission signal of the fluorophore after a 15-minute incubation: peptide:molecular beacon 500:1, beacon 400 nM, 5 mM MnCl2; for signal / disassembly of the molecular beacon with different metal ions: zinc, manganese, calcium and magnesium chloride
Text: A molecular beacon assay was firstly used to screen each of the peptides for DNA binding and cleavage. For the purpose of these studies, the following DNA oligonucleotide containing 33 nucleotides was employed
where the first six nucleotides at each terminus complement one another forming a 6 bp double stranded DNA stem.
The hairpin structure formed contains a fluorescein molecule as a 5′ modification (6-FAM) and a fluorescent quencher (BHQ1) as a 3′ modification. In the hairpin conformation the fluorescent signal of the molecular beacon is reduced. If a peptide binds or causes cleavage, the hairpin structure will disassemble releasing the fluorophore from the quencher.
The reaction conditions were chosen to reflect conditions that might be expected to strengthen the probability of DNA cleavage by each peptide. As noted above, the peptide designs were inspired by the catalytic active sites of known nucleases. Often the divalent metal of choice for such sites is Mg^2 +. […] In contrast Mn^2 + ions require less coordination sites to facilitate catalysis.
Each reaction was carried out in a reaction buffer of 25 mM Tris-HCl (pH 7.5), 130 mM NaCl, 27μM KCl and 5 mM MnCl2. The molecular beacon was provided at a concentration of 400 nM.
The emission signal of the fluorophore after a 15-minute incubation was measured for each peptide mixed with the molecular beacon at a 500:1 concentration ratio.

PDS1 dsDNA bait (GAGGTC) = assay: ELISA / bio-panning of M13 phage display peptides on biotinylated dsDNA bait PDS1; format: binding; conditions: peptide displayed in the phage library
Text: as §1, §2, §3

[3] = tested on: nanoluciferase expression cassette with PDS variants in the target region; assay: Nanoluciferase detection assay for binding ability of the DBD to variant PDSs (ApGet-i); format: cell-based; conditions: EPI300 cells, ApGet-i induced with ATC, nanoluciferase induced with IPTG
Text: As noted above the DBD of sequence SLETWLKHREKDGGS (SEQ. ID. No. 4) was selected on the basis of binding affinity for the dsDNA sequence represented by the 5′ to 3′ sequence 5′GAGGTC3′ (the initially chosen predetermined sequence (PDS) for use in targeting). A further study was undertaken to determine the importance of various nucleotides in this PDS for binding to the same DBD using a nanoluciferase detection assay (Promega). This was on the basis of the prior observation as noted above that expression of ApGet-i in bacteria can suppress transcription of sequences containing target sites for the NAC plus the PDS used for DBD selection.
A nanoluciferase expression cassette was cloned in a second plasmid vector (the Detector plasmid) with the PDS as originally used for DBD selection and variants of that PDS in the target region as shown in FIG. 22.
Bacterial cells were transformed with the Editor plasmid in which ApGet-i expression was under the control of a TetR promoter. The NAC was also expressed by the same plasmid under the control of a constitutive J23119 promoter. The Detector and Editor plasmids were provided with different resistance genes and compatible origins of replication. […] The signal of the nanoluciferase was monitored on the microplate reader and normalized to take account of the degree of bacterial growth in the culture. […]

[4] = tested on: PDS1 in an extended dsDNA target; assay: FRET experiment for binding/unwinding of dsDNA and RNA hybridization; format: biochemical; conditions: FAM-tagged targeting RNA, target DNA tagged with Cy5 or Texas Red
Procedure: FIG. 5: Schematic diagram illustrating a FRET experiment to assess specific binding and unwinding of a dsDNA target by peptide binding to a PDS with RNA hybridization. Results are also shown for binding of Peptide 1 (SEQ. ID. No. 37 as shown in Table 2) to PDS1 having the 5′ to 3′ sequence GAGGTC. The FRET signal was determined upon incubation of the PDS1 containing dsDNA targets with 5′ FAM-RNA with (2, 4) or without peptide (1, 3).
A FRET experiment was carried out to assess the binding and unwinding activity of Peptide 1 with ability to facilitate RNA hybridization when presented with PDS1 in an extended dsDNA target as shown schematically in FIG. 5. It was hypothesized that, upon binding, Peptide 1 will cause some transient unwinding of the dsDNA which will facilitate binding of a targeting RNA. The fluorescent donor, 6-carboxyfluorescein (FAM), was used to tag an appropriate targeting RNA with a 15 bp complementary sequence. Target DNA was tagged with the fluorescent acceptor Cy5 at a 3′ end or Texas Red at a 5′-end.

[5] = tested on: extended dsDNA containing the cognate PDS (PDS1); assay: T7E1 cleavage assay for peptide binding and unwinding of dsDNA target; format: biochemical; conditions: chemically synthesized peptides, PDS1 as cognate PDS
Text: FIG. 4: Cleavage assay results using T7E1 enzyme for binding of the chemically synthesized peptides 1, 2, 3 and 4 (Table 2 in Example 1) to the two 6 nt sequences as above designated PDS1 and PDS2 in a dsDNA target and unwinding of the dsDNA target.
It was reasoned that the phage clones with the selected DNA binding peptides will alter a DNA duplex in a region presenting the cognate PDS, which may result in recognition by DNA nucleases, such as T7E1, commonly used to detect insertions or deletions (indels), which result from the activity of genome editing enzymes, such as Cas9, Cas12a etc. Results of such cleavage assays for destabilized DNA duplex using the extended dsDNA baits as set out in Table 3 below and T7E1 and Surveyor enzymes support this hypothesis (see FIGS. 3a-c), i.e. that binding of the clones presenting the selected fused peptides to dsDNA destabilizes the structure of the DNA duplex in a manner facilitating accessibility for RNA hybridization.
The modified peptides as set out in Table 2 were used to test the sequences for use as DNA-binding domains without M13 phage connection. The modifications included amidation and acetylation at the […] to reflect natural peptide modifications to improve peptide stability and prevent degradation. In the case of Peptides 1 and 3, an additional C-terminal linker (GGS) was provided as noted above. […]

- binding to the PDS2 dsDNA bait (PDS2 dsDNA bait (ACGGGT)): binding to the PDS2 dsDNA bait
Substance: AGDWESWTNGSW [Peptide 4]

Substance: IEIDIHI [ibD]
- aggregation / precipitation of peptide [1]: no observable aggregates even at the highest tested concentration

- signal with increasing peptide concentration, Zn2+ ions ([2]; Zn2+ ions, peptide 0-800 μM): still increase up to 800μM
- signal without any metal ions ([2]; no metal): high signal
- signal for the disassembly of the molecular beacon with increasing peptide concentration ([2]; peptide 0-800 μM, Mn2+ or Zn2+): general increase
- emission signal of the fluorophore after a 15-minute incubation [2]: relatively high emission signal
Substance: IHIDISI [bN]
- cleavage of plasmid (plasmid DNA (pBR322)): some cleavage
- percentage of nicked plasmid with increasing peptide concentration (plasmid DNA (pBR322); Zn2+ ions): increase in the percentage of nicked plasmid
- signal with Mn2+ ions compared with Mg2+ ions ([2]; peptide concentration 400 μM, beacon 400 nM): greater than the bN peptide with Mg^2 + ions
- signal / disassembly of the molecular beacon with different metal ions [2]: high increase in the signal regardless of the metal; also recorded: greater with Mn^2 + ions

- emission signal of the fluorophore after a 15-minute incubation [2]: relatively high emission signal
Substance: LDLDLKLHL [bL]
- cleavage of plasmid (plasmid DNA (pBR322)): some cleavage
- amount of nicked plasmid at higher peptide concentrations (greater than 600 μM) (plasmid DNA (pBR322); Zn2+ ions, 12 hours): continues to increase
- percentage of nicked plasmid with increasing peptide concentration (plasmid DNA (pBR322); Zn2+ ions): increase in the percentage of nicked plasmid
- signal / disassembly of the molecular beacon with different metal ions [2]: more extensive in the presence of zinc chloride ions

- binding ability for the PDS1 dsDNA bait (PDS1 dsDNA bait (GAGGTC)): high binding ability
Substance: SLETWLKHREKD [Peptide 2]

- inhibition of luciferase expression with different PDSs ([3]; listed as DBD of SEQ. ID no. 4): shown to be effective
Substance: SLETWLKHREKDGGS (DBD) [DBD of SEQ. ID. No. 4]
- inhibition of luciferase expression with different PDSs ([3]; listed as DBD): effective in inhibiting expression of the luciferase

Substance: SLETWLKHREKDGGS [Peptide 1]
- RNA-DNA hybridisation reflected by FRET signal [4]: shown to be facilitated; also recorded: increase of FRET signal
- binding and non-duplex structure formation (T7E1 cleavage) [5]: best candidate to be a DNA-binding domain
